According to US6537967B1, “Pentamer peptide amide, ALGPGNH2, which inhibits viral infectivity and methods of use thereof” (Tripep AB, priority 2001, dated 2003):
Peptide text beside a SMILES is read from it.

What was measured:
Format in all cases: cell-based
HIV-1 clinical isolate 1 = HIV-1 clinical isolate 1 infectivity assay in PBMC (p24 in culture supernatant); details: FIG. 2
Description: (§1) In this example, the methods that were used to analyze the ability of ALGPG-NH2 (SEQ. ID. NO.: 1) to inhibit HIV- l replication are disclosed. HIV-1 SF-2 stock was prepared from HUT78 cells and two clinical isolates were prepared from donor's peripheral blood mononuclear cells (PBMC). The virus infected cells were propagated and maintained in RPMI 1640 medium supplemented with 10% heat inactivated fetal bovine serum (GIBCO Laboratories) with penicillin and streptomycin (100 μg/ml each). PBMCs were purified by Ficoll-Hypaque density gradient centrifugation and stimulated with phytohemagglutinin (KEBO laboratories, Sweden) for three days in RPMI 1640 medium supplemented with 10% heat inactivated fetal bovine serum (GIBCO Laboratories) with penicillin and streptomycin (100 μg/ml each).
(§2) The infectivity assays of the HIV-1 clinical isolates were performed, as above, in PBMC, which were stimulated for three days with 2.5 μg/ml of phytohemagglutinin (DIFCO, New Jersey). Cells were cultured in RPMI 1640 medium supplemented with 10% (v/v) heat-inactivated fetal bovine serum (FBS), penicillin (100 u/ml), and streptomycin (100 u/ml), all available through GIBCO, and Polybrene (2 μg/ml), available through Sigma. […] The production of p24 in the culture supernatent was monitored using a commercially available HIV p24 antigen detection kit (ELISA kit from Abbott Laboratories, North Chicago, U.S.A.).

HIV-1 clinical isolate 2 = HIV-1 clinical isolate 2 infectivity assay in PBMC (p24 in culture supernatant); details: FIG. 2
Description: as §1, §2

HIV-1 SF-2 = HIV-1 SF-2 infectivity assay in H9 cells (RT activity and p24 in culture supernatant); details: 25 TCID50, FIG. 1
Description: as §1
Approximately 10^5 of H9 cells were infected with HIV-1 SF-2, obtained as described above, at 25 TCID50 to test the inhibitory effect of ALGPG-NH2 (SEQ. ID. NO.: 1). The H9 cells were resuspended with or without ALGPG-NH2 (SEQ. ID. NO.: 1) (at approximately 5 μM, 20 μM, and […]) in 1 ml of RPMI 1640 medium supplemented with 10% (v/v) heat-inactivated fetal bovine serum (FBS), penicillin (100 μ/ml), and streptomycin (100 u/ml), all available through GIBCO, and Polybrene (2 μg/ml), available through Sigma. Thereafter, viruses were added at 25 TCID50 in a volume of 20-30 μl. Cells were incubated with virus at 37° C. for 1 hr then pelleted at 170×g for 7 minutes. The cells were then washed three times in RPMI medium with or without peptides at room temperature and pelleted at 170×g for 7 minutes, as above. […]
Culture supernatants were collected and analyzed when the medium was changed at 4, 7, 10, and 14 days post infection. […] The amount of RT was determined with the aid of a regression line of standards. The presence of p24 in the supernatants was determined using a commercially available HIV p24 antigen detection kit (ELISA kit from Abbott Laboratories, North Chicago, U.S.A.).

## CC(C)C[C@H](NC(=O)[C@H](C)N)C(=O)NCC(=O)N1CCC[C@H]1C(=O)NCC(N)=O [ALGPG-NH2] (H-ALGPG-NH2; N-terminus assumed)
HIV-1 clinical isolate 1; 20 μM
  inhibition of isolate 1: approximately 20%
HIV-1 clinical isolate 1; 100 μM
  inhibition of isolate 1: almost complete
HIV-1 clinical isolate 2; 20 μM
  inhibition of isolate 2: approximately 50%
HIV-1 clinical isolate 2; 100 μM
  inhibition of isolate 2: almost complete
HIV-1 SF-2; 5 μM peptide amide
  inhibition of HIV-1 SF-2 infection: approximately 50%
HIV-1 SF-2; 20 μM peptide amide
  inhibition of HIV-1 SF-2 infection: almost complete
HIV-1 SF-2; 100 μM peptide amide
  inhibition of HIV-1 SF-2 infection: almost complete
